# Legend:
# [1] = Drug uptake in po dosed Hartley guinea pig plasma; type: ADME, organism-based, Cavia porcellus; details: in vivo
# [2] = Drug uptake in Hartley guinea pig lung at 0.01 to 0.3 mg/kg administered via intra-tracheal instillation measured after 1 hr; type: ADME, organism-based, Cavia porcellus; details: in vivo, inhaled_or_intranasal
# [3] = Drug uptake in Hartley guinea pig plasma at 0.01 to 0.3 mg/kg administered via intra-tracheal instillation measured after 1 hr; type: ADME, organism-based, Cavia porcellus; details: in vivo, inhaled_or_intranasal
# Mus musculus = assay: In vivo inhibition of IKK2 in Balb/c mouse assessed as decrease in IL-1beta-induced NF-kappaB activation administered intranasally 0.5 to 1 hr prior to IL-1beta challenge measured after 1 to 24 hrs by luciferase reporter gene assay; type: functional
# [4] = Drug uptake in Hartley guinea pig lung at 0.3 mg/kg administered via intra-tracheal instillation measured after 1 hr; type: ADME, organism-based, Cavia porcellus; details: in vivo, inhaled_or_intranasal
# [5] = Prodrug conversion in Hartley guinea pig lung assessed as formation of 2-{[2-(2-Methylamino-pyrimidin-4-yl)-lH-indole-5-carbo- nyl]-amino}-3-(phenyl-pyridin-2-yl-amino)-propionic acid at 0.01 to 0.3 administered via intra-tracheal instillation measured after 1 hr; type: ADME, Cavia porcellus; details: in vivo, inhaled_or_intranasal
SMILES,Drug uptake [1],Drug uptake [2],Drug uptake [3],inhibition (Mus musculus),Drug uptake [4],Drug metabolism [5]
CNc1nccc(-c2cc3cc(C(=O)N[C@@H](CN(c4ccccc4)c4ccccn4)C(=O)O)ccc3[nH]2)n1,Active,Active,Active,Dose-dependent effect,–,–
CNc1nccc(-c2cc3cc(C(=O)N[C@@H](CN(c4ccccc4)c4ccccn4)C(=O)NOC)ccc3[nH]2)n1,Active,–,Active,Dose-dependent effect,Active,Metabolite_Detected
